Test results reported in patent publication US11622980B2, “Compositions comprising prebiotics and probiotics” (OPTIBIOTIX LIMITED, priority 2017, dated 2023).
“Also recorded” adds a separate entry of the source. Like-named read-outs stand apart in the source and are kept apart here.

What was measured:
[1] = tested on: gas producing members of the faecal microbiota; assay: Rate of gas and cumulative gas determination in non-pH controlled faecal culture; type: cell-based, healthy adults
Procedure: The aims of this experiment were to determine: (i) the total gas production over a 24 h fermentation period of each of carbohydrate of interest; (ii) the kinetics of gas production (rate) to evaluate the potential of increased abdominal discomfort in vivo upon the ingestion of the carbohydrates of interest; and (iii) the impact of using the selected carbohydrates in combination with LR on total and rate of gas production.
Determination of rate of gas was of particular importance as gas generation at specific time points rather than continuously at low or moderate levels may correlate with abdominal discomfort in vivo and important in relevance to consumer acceptability.
The experiments investigated the potential for gastrointestinal discomfort in vitro, through the determination of rate of gas and cumulative gas production in faecal culture. The cultures were non-pH controlled and six experimental runs were conducted using faeces from six different healthy adults. Headspace gas readings collected every 3 h over a 24 h period for rate of gas determination
The experimental design was as follows: • Faeces • Faeces+L. rhamnosus ATCC 53103 (negative control) • Faeces+Inulin HP (positive prebiotic control) • Faeces+Inulin HP+L. rhamnosus ATCC 53103 (positive synbiotic control) • Faeces+test carbohydrate • Faeces+test carbohydrate+L. rhamnosus ATCC 53103 Lactobacillus rhamnosus ATCC 53103 Test Dose Determination
Intervention dose used in the non-pH controlled gas determination experiments and the pH controlled faecal batch culture experiments was calculated based on the relative amounts of faecal inoculum and LR viable counts in the gut model (low dose, 0.75×10^4 cfu) and the relative concentrations of total bacteria to LR viable counts in the gut model (high dose, 5.36×10^4 cfu). Both doses were tested in the non-pH controlled gas determination faecal cultures to determine the possible role of LR in rate and cumulative gas production.

L. rhamnosus ATCC 53103 [2] = assay: qPCR determination of LR concentrations in anaerobic pH controlled faecal batch culture; type: cell-based, Lactobacillus rhamnosus; conditions: for LR concentration (growth) in faecal culture: pH controlled anaerobic faecal batch culture, 1% w/v substrate, LR 5.36×10^4 cfu
Procedure: Synbiotic potential of the selected oligosaccharides/blends was then to be determined in 24 h, anaerobic, pH and temperature controlled micro-scale faecal (10 ml working volume) faecal batch culture models.
The models had been optimised to work at 1% w/v test oligosaccharide concentration and carried out at pH6.8, which is relevant to the distal colon. Conditions in the distal colon (carbohydrate availability, very slow transit time) are more relevant to batch culture design. Fermentations were to be set up in parallel in identical conditions with the only variable being the test oligosaccharides. The following combinations were to be tested in each experimental run: • Faeces (prebiotic negative control) • Faeces+LR (synbiotic negative control) • Faeces+LR+GeOS (gentiooligosaccharides) • Faeces+LR+Cellb (cellobiose) • Faeces+LR+XOS (xylooligosaccharides) • Faeces+GeOS • Faeces+Cellb • Faeces+XOS • Feces+inulin (positive prebiotic control for test prebiotics) • Faeces+FOS (positive prebiotic control for test prebiotics) • Faeces+LR+inulin (positive prebiotic control for test synbiotics) • Faeces+LR+FOS (positive prebiotic control for test synbiotics)
All vessels, run in parallel, were to be inoculated with the same faecal sample and the experiment repeated using a faecal sample from each of six different healthy donors. […] levels in faecal culture using qPCR; and determination of the impact of each intervention on commensal faecal microbiome composition using FISH to ensure novel prebiotic will not be fermented by undesirable bacteria and ensure selectivity in a complex, competitive culture environment. Analysis targeted numerically dominant and functionally significant faecal bacterial groups including Bacteroides, Clostridium, Eubacterium, Propionibacterium, Bifidobacterium, Lactobacillus, Faecalibacterium, Atopobium, and Desulfovibrio.
(§1) An in vitro assessment of synbiotic efficacy in faecal culture using a pH controlled, anaerobic, temperature controlled cultures. The cultures were inoculated with faecal slurry of each of 6 healthy adults. The combinations included: • Faeces (prebiotic negative control) • Faeces+LR (synbiotic negative control) • Faeces+LR+GeOS (gentiooligosaccharides) • Faeces+LR+Cellb (cellobiose) • Faeces+LR+XOS (xylooligosaccharides) • Faeces+GeOS • Faeces+Cellb • Faeces+XOS • Feces+inulin (positive prebiotic control for test prebiotics) • Faeces+FOS (positive prebiotic control for test prebiotics) • Faeces+LR+inulin (positive prebiotic control for test synbiotics) • Faeces+LR+FOS (positive prebiotic control for test synbiotics)
No commensal LR was detected in the prebiotic only cultures (data not shown).
The primers for the real-time PCR determination was as follows: […]

L. rhamnosus ATCC 53103 [3] = assay: Pure culture growth screening of L. rhamnosus ATCC 53103 on oligo/polysaccharides; type: cell-based, Lactobacillus rhamnosus
Description: Commercially available prebiotics and other oligo and polysaccharides were first screened using a fast throughput automated growth culture system under anaerobic conditions to establish ability to support LR growth and define growth rates (1% w/v). The following test substrates had been initially identified for further consideration: Short chain fructooligosaccharides (scFOS), oligofructose P95 (FOS), Orafti ST, Orafti HP, Synergy 1, Bioecolians (glucooligosaccharides), gentiooligosaccharides, fucosyllactose, ß glucan (low/medium/high molecular weight; derived from oats), yeast ß glucan, arabinoxylan, xylooligosaccharides, caseinoglycomacropeptide (cgmp), raffinose, stachyose and Bio-Mos.
The aim of the experiment was to investigate the growth behavior of L. rhamnosus ATCC 53103 under a wide variety of commercially available, oligo and polysaccharides and to evaluate impact of test substrate physical characteristics on screening process and investigate growth on GOS synthesized by L. rhamnosus GR1 β-galactosidases. Results would be evaluated on the basis of: microbial growth (OD-Fermentation time); growth rate [μmax(h^−1)]; and change in optical density (max-min). Growth preferences of Lactobacillus rhamnosus ATCC 53103 would be used to determine target structures and carbohydrates for use as prebiotics for L. rhamnosus species or strains. […]

[4] = tested on: Lactobacillus plantarum 2830 (ECGC 13110402); assay: Pure culture growth of Lactobacillus plantarum 2830 (LP-LDL) on carbohydrate sources; type: cell-based; conditions: modified MRS, glucose (1% wt/vol) substituted, anaerobic, 37° C., OD 620 nm
Procedure: Similar growth experiments to Example 1 above were conducted on Lactobacillus plantarum 2830 (ECGC 13110402) on a range of substrates including, MRS+LP, Glucose, Lactose, LP GOS, alphaGOS (a proprietary GOS product), Raffinose, Galactose, Cellobiose, FOS (short chain), Sucrose, GOS I (a proprietary GOS product), GOS II (a proprietary GOS product), GOS III (a proprietary GOS product) and Gentiooligosaccharides (GeOS). […] Experiments were carried out under anaerobic conditions on a 96-well microtiter plate system (FLUOstar Omega, BMG LABTECH) in a final volume of 200 μL using an inoculum size 10% (w/v), previously diluted to obtain an initial OD620 nm=0.2. Incubation was conducted under anaerobic conditions at 37° C. with interval shaking at 500 rpm every 5 min. Optical density measurements at 620 nm were employed to assess microbial growth.

L. rhamnosus ATCC 53103 [5] = assay: Organic acid (SCFA and lactate) synthesis in pH controlled faecal batch culture; type: cell-based, Lactobacillus rhamnosus; conditions: pH controlled faecal batch cultures with LR
Description: Lastly, determination of faecal microbiome activity through organic acid (SOFA and lactate) measurement was to be conducted at each sampling point. Information will indicate potential fermentation rates of each novel prebiotic.
as §1

[6] = tested on: Lactobacillus/Enterococcus (Lab158); assay: FISH of commensal bacteria in pH controlled faecal culture, probe Lab158; type: cell-based, healthy adults
Procedure: (§2) All vessels, run in parallel, were to be inoculated with the same faecal sample and the experiment repeated using a faecal sample from each of six different healthy donors. Samples were to be obtained at inoculation (0 h) and then at 8 and 24 h of fermentation for: determination of LR levels in faecal culture using qPCR; and determination of the impact of each intervention on commensal faecal microbiome composition using FISH to ensure novel prebiotic will not be fermented by undesirable bacteria and ensure selectivity in a complex, competitive culture environment. Analysis targeted numerically dominant and functionally significant faecal bacterial groups including Bacteroides, Clostridium, Eubacterium, Propionibacterium, Bifidobacterium, Lactobacillus, Faecalibacterium, Atopobium, and Desulfovibrio.
(§3) An in vitro assessment of synbiotic efficacy in faecal culture using a pH controlled, anaerobic, temperature controlled cultures. The cultures were inoculated with faecal slurry of each of 6 healthy adults. […]
(§4) Fluorescent in situ hybridisation (FISH) experiments were then conducted to investigate the impact on commensal gut microbiome bacterial populations in faecal culture and the fluorescently labelled micrographs are shown in FIG. 20. FISH is a fully quantitative methodology for determining bacterial concentrations at the genus and species level. […]

[7] = tested on: Bacteroides/Prevotella (Bac303); assay: FISH of commensal bacteria in pH controlled faecal culture, probe Bac303; type: cell-based, healthy adults; conditions: pH controlled anaerobic faecal culture
Procedure: as §2, §3, §4

Ato291 (Atopobium) = assay: FISH of commensal bacteria in pH controlled faecal culture, probe Ato291; type: cell-based, healthy adults; conditions: pH controlled anaerobic faecal culture, FIG. 25
Procedure: as §2, §3, §4

Compound | donors sensitive to the test oligosaccharide (total gas production) [1] | rate of gas production [1] | tolerance by donors (total gas and rate of gas) [1] | volunteers showing an increase of L. rhamnosus ATCC 53103 concentrations (L. rhamnosus ATCC 53103 [2]; 0, 10 and 24 h pH controlled faecal batch culture, six volunteers, qPCR) | LR concentration (growth) in faecal culture (L. rhamnosus ATCC 53103 [2]; qPCR) | LR concentration (growth) in faecal culture (L. rhamnosus ATCC 53103 [2]; qPCR, listed as Cellobiose) | dependence of the effect on LR on faecal donor (L. rhamnosus ATCC 53103 [2]; pH controlled faecal batch cultures, six donors) | lag phase (L. rhamnosus ATCC 53103 [3]; pure culture growth curves, 1% (w/v) substrate, FIG. 9) | growth of LR in pure culture (L. rhamnosus ATCC 53103 [3]; pure culture, modified MRS, 1% w/v test carbohydrate) | growth rates of LP-LDL [4] | growth yields of LP-LDL [4] | rate of gas production ([1]; 24 h non-pH controlled faecal culture, readings every 3 h, relative to inulin) | cumulative gas production ([1]; 24 h non-pH controlled faecal culture, relative to inulin) | donors sensitive to the test oligosaccharide (total gas production) ([1]; 24 h non-pH controlled faecal fermentation, six faecal donors) | LR activity (organic acid synthesis) (L. rhamnosus ATCC 53103 [5]) | responders within the 6 faecal donors (Lab158) ([6]; compared to the positive controls (inulin and FOS)) | Lab158 (Lactobacillus/Enterococcus) concentration ([6]; pH controlled anaerobic faecal culture, six healthy adults, FISH) | Bacteroides/Prevotella (Bac303) concentration [7] | Ato291 concentrations (Ato291 (Atopobium))
xylooligosaccharides [XOS] | Donors 4 and 7 | comparable to that of inulin | tolerated the best by the majority of donors | – | – | – | – | – | – | – | – | – | – | – | – | – | – | – | –
O=C[C@H](O)[C@@H](O)[C@H](O[C@@H]1O[C@H](CO)[C@@H](O)[C@H](O)[C@H]1O)[C@H](O)CO [cellobiose] | – | – | – | Five out of the six | growth of LR | best growth substrate for LR; also recorded: increases in LR concentration | not dependent on faecal donor enterotype | notably longer lag phase | can grow in pure culture | highest growth rates | highest growth yields | comparable to that of inulin | comparable to that of inulin | Donors 4 and 7; also recorded: donor 5 | mediated increases in LR concentration and activity | More responders | significant increase | some impact | some increases
gentiooligosaccharides [GeOS] | Donors 4 and 7 | comparable to that of inulin | tolerated the best by the majority of donors | – | – | – | – | – | – | – | – | – | – | – | – | – | – | – | –
